Source: US20230391748A1, “BICYCLIC INHIBITORS OF IRAK” (priority 2022, published 2023)
pIC50: −log10 of the molar value.

Columns and labels:
[1] = tested on: TNF-α in human PBMCs; assay: R848-induced TNF-α in human PBMCs Assay; format: cell-based; conditions: Homo sapiens, PBMC, 4 h, read-out: TNFα (PBMC, R848) (IC50, μM)
In short: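 Human PBMCs at 200K/well were pretreated with compound, then R848-stimulated for 4 h at 37 °C, 5% CO2. Supernatant TNF-α quantified by chemiluminescent ELISA; EC50 from curve fitting.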

[2] = target: IRAK4 (Homo sapiens (Human), UniProt Q9NWZ3); assay: IRAK4 ADP-Glo Assay; format: biochemical; conditions: MBP substrate
In short: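 Human IRAK4 kinase reaction with MBP substrate plus ATP in Tris-HCl/MgCl2/BSA/DTT buffer, pH 7.4, run 60 min at room temperature or 30 min at 30 °C. ADP formed was measured by ADP-Glo luminescence after ATP depletion (40 min) and detection reagent (30 min).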

[3] = tested on: IL23p19 in THP-1 Cells; assay: LPS Induced IL23p19 in THP-1 Cells (with IFNγ Primed) Assay; format: cell-based; conditions: Homo sapiens, THP-1, 18 h, read-out: IL23 (THP, LPS) (IC50, μM)
In short: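 THP-1 cells (50K/well) primed with IFNγ (50 ng/mL) about 18 h, then given compound and stimulated with LPS for 18 h at 37 °C. Secreted IL-23p19 measured by sandwich ELISA with chemiluminescent read-out, giving EC50. Cell Titer Glo used on the remaining cells for toxicity.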

[4] = tested on: TNF-α in Human Primary Monocyte-Derived Dendritic Cells; assay: Gardiquimod-Induced TNF-α in Human Primary Monocyte-Derived Dendritic Cells; format: cell-based; conditions: Dendritic cell, IFNγ-primed monocyte-derived dendritic cells, 4 μg/ml Gardiquimod, 6 hours, TNF-α ELISA, read-out: TNFα (DC, GARD) (IC50)
In short: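 Monocytes differentiated 7 days with GM-CSF and IL-4, then primed 24 h with 50 ng/ml IFN-γ. Compound added 1 h before 6 h stimulation with 4 μg/ml Gardiquimod, 0.5% DMSO final. Supernatant TNF-α measured by chemiluminescent ELISA; EC50 from curve fitting.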

Sequence of IRAK4 (Q9NWZ3 whole entry): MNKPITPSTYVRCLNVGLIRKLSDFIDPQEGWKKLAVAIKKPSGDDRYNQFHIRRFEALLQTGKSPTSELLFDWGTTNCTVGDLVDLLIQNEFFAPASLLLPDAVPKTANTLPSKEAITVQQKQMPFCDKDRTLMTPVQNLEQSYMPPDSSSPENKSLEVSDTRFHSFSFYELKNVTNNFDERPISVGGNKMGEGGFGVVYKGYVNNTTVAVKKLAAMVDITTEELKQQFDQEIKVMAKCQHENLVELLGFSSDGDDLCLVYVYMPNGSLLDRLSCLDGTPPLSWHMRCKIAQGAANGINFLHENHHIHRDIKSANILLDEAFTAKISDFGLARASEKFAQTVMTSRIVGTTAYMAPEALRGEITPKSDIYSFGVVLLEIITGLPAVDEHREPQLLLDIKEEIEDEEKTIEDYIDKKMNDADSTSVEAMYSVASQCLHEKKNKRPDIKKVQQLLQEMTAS

Structure (SMILES): CC(C)Oc1cc2c(O[C@@H]3CCCNC3)ncc(-c3cnn(CC4CCOCC4)c3)c2cc1C(N)=O [Compound I-112, (R)-7-isopropoxy-1-(piperidin-3-yloxy)-4-(1-((tetrahydro-2H-pyran-4-yl)methyl)-1H-pyrazol-4-yl)isoquinoline-6-carboxamide]
- IC50 [1]: 3.95 µM
- pIC50 [2]: 6.55
- IC50 [3]: 13.6 µM
- pIC50 [4]: 5.04

Structure (SMILES): CC(C)Oc1cc2c(O[C@@H]3CCCNC3)ncc(-c3cnn(CCC4CCOCC4)c3)c2cc1C(N)=O [Compound I-113, (R)-7-isopropoxy-1-(piperidin-3-yloxy)-4-(1-(2-(tetrahydro-2H-pyran-4-yl)ethyl)-1H-pyrazol-4-yl)isoquinoline-6-carboxamide]
- IC50 [1]: 0.677 µM
- pIC50 [2]: 6.44
- IC50 [3]: 8.82 µM
- pIC50 [4]: 6.07

Structure (SMILES): CC(C)Oc1cc2c(O[C@@H]3CCCN(C(=O)CC#N)C3)ncc(-c3cnn(C4CC4)c3)c2cc1C(N)=O [Compound I-114, (R)-1-((1-(2-cyanoacetyl)piperidin-3-yl)oxy)-4-(1-cyclopropyl-1H-pyrazol-4-yl)-7-isopropoxyisoquinoline-6-carboxamide]
- IC50 [1]: 0.549 µM
- pIC50 [2]: 7.91
- IC50 [3]: 1.42 µM
- pIC50 [4]: 6.18

Structure (SMILES): CC(C)Oc1cc2c(O[C@@H]3CCCN(C(=O)CC#N)C3)ncc(-c3cnn(C4CCC4)c3)c2cc1C(N)=O [Compound I-115, (R)-1-((1-(2-cyanoacetyl)piperidin-3-yl)oxy)-4-(1-cyclobutyl-1H-pyrazol-4-yl)-7-isopropoxyisoquinoline-6-carboxamide]
- IC50 [1]: 0.443 µM
- pIC50 [2]: 7.88
- IC50 [3]: 0.911 µM
- pIC50 [4]: 6.35

Structure (SMILES): CC(C)Oc1cc2c(O[C@@H]3CCCN(C(=O)CC#N)C3)ncc(-c3cnn(C4CCCC4)c3)c2cc1C(N)=O [Compound I-116, (R)-1-((1-(2-cyanoacetyl)piperidin-3-yl)oxy)-4-(1-cyclopentyl-1H-pyrazol-4-yl)-7-isopropoxyisoquinoline-6-carboxamide]
- IC50 [1]: 0.271 µM
- pIC50 [2]: 8.11
- IC50 [3]: 1.37 µM
- pIC50 [4]: 6.66

Structure (SMILES): CC(C)Oc1cc2c(O[C@@H]3CCCN(C(=O)CC#N)C3)ncc(-c3cnn(C4CCOCC4)c3)c2cc1C(N)=O [Compound I-117, (R)-1-((1-(2-cyanoacetyl)piperidin-3-yl)oxy)-7-isopropoxy-4-(1-(tetrahydro-2H-pyran-4-yl)-1H-pyrazol-4-yl)isoquinoline-6-carboxamide]
- IC50 [1]: 7.24 µM
- pIC50 [2]: 7.60
- IC50 [3]: 3.91 µM
- pIC50 [4]: 5.99

Structure (SMILES): CC(C)Oc1cc2c(O[C@@H]3CCCN(C(=O)CC#N)C3)ncc(-c3cnn(CC4CCOCC4)c3)c2cc1C(N)=O [Compound I-118, (R)-1-((1-(2-cyanoacetyl)piperidin-3-yl)oxy)-7-isopropoxy-4-(1-((tetrahydro-2H-pyran-4-yl)methyl)-1H-pyrazol-4-yl)isoquinoline-6-carboxamide]
- IC50 [1]: 6.5 µM
- pIC50 [2]: 7.69
- IC50 [3]: 4.2 µM
- pIC50 [4]: 5.83

Structure (SMILES): CC(C)Oc1cc2c(O[C@@H]3CCCN(C(=O)CC#N)C3)ncc(-c3cnn(CCC4CCOCC4)c3)c2cc1C(N)=O [Compound I-119, (R)-1-((1-(2-cyanoacetyl)piperidin-3-yl)oxy)-7-isopropoxy-4-(1-(2-(tetrahydro-2H-pyran-4-yl)ethyl)-1H-pyrazol-4-yl)isoquinoline-6-carboxamide]
- IC50 [1]: 2.51 µM
- pIC50 [2]: 7.74
- IC50 [3]: 2.22 µM
- pIC50 [4]: 5.99

Structure (SMILES): CC(C)Oc1cc2c(O[C@@H]3CCCN(C(=O)CC#N)C3)ncc(-c3cnn([C@H]4C[C@@H](N(C)C)C4)c3)c2cc1C(N)=O [Compound I-120, 1-(((R)-1-(2-cyanoacetyl)piperidin-3-yl)oxy)-4-(1-(cis-3-(dimethylamino)cyclobutyl)-1H-pyrazol-4-yl)-7-isopropoxyisoquinoline-6-carboxamide]
- IC50 [1]: 0.227 µM
- pIC50 [2]: 8.08
- IC50 [3]: 2.83 µM
- pIC50 [4]: 6.37
